# Results reported in patent US20230233144A1, “Method for Determining Medication Adherence and Taggants Therefo” (The Regents of the University of Colorado, A Body Corporate, priority 2021, published 2023).
# Read-outs that look alike come from different tables or passages of the source.
# How the values were obtained:
# [1] = in vivo
# Excerpt: Example 2: An assay for a tenofovir (a PrEP drug) anabolite, tenofovir-diphosphate in red blood cells, which may be collected in dried blood spots (DBS), is disclosed as an adherence assessment. […] This enables assessment of cumulative dosing, indicative of degrees or gradients of adherence, over the preceding 1-2 months for tenofovir-based PrEP. This is analogous to how hemoglobin A1C works for cumulative glucose exposure. […] FIG. 3 illustrates how taggant tenofovir diphosphate concentration in dried blood spots is used in clinical trials to correlate and interpret medication adherence based upon TFV-DP concentration in DBS.
# [2] = Daily 5+ ATP to rats for six days, 5+ ATP/1+ ATP ratio in dried blood spots by mass spectrometry; conditions: rat, red blood cells in dried blood spots, 100 mcg, in vivo ATP pool
# Excerpt: Once each day, blood spot samples were taken from each rat and dried.
# The in vivo ATP pool is large, the half-life of ATP is relatively long, 3 days in rats, corresponding to about 10 days in humans.
# [3] = ATP half-life corresponding value in humans; conditions: human, in vivo, corresponding to the rat value
# Excerpt: The in vivo ATP pool is large, the half-life of ATP is relatively long, 3 days in rats, corresponding to about 10 days in humans. […] Given the long half-life of ATP, the measurement for gradients of adherence is analogous to hemoglobin A1C as a measure of gradients of glucose exposure over the preceding months.
half-life ([1]; human),accumulation from a single dose to steady-state [1],time of build up in DBS until steady-state plateau [1],half-life [2],half-life [3],Compound
408 h,25 fold,approximately 60 days,–,–,"CC(Cn1cnc2c(N)ncnc21)OCP(=O)(O)OP(=O)(O)OP(=O)(O)O (stereo in doubt) [TFV-DP, tenofovir-diphosphate]"
–,–,–,72 h,~240 h,"Nc1ncnc2c1ncn2[C@@H]1O[C@H](COP(=O)(O)OP(=O)(O)OP(=O)(O)O)[C@@H](O)[C@H]1O [ATP, adenosine triphosphate]"
